Like-named read-outs stand apart in the source and are kept apart here.
Assays:
[1] = tested on: F21T; assay: FRET melting assay, F21T; format: binding; conditions: dual-labeled DNA 0.2 μM, DMZ analogues 1 μM, potassium cacodylate 60 mM pH 7.2
Method: (§1) Fluorescence resonance energy transfer (FRET) assay to determine Tm in absence and presence of ligands. Dual-labelled DNA was diluted from stock (50 μM) to 400 nM in 60 mM potassium cacodylate buffer (pH 7.2) and then annealed by heating at 85° C. for 10 min followed by cooling to room temperature in the heating block. Compounds were diluted from stock (20 mM in DMSO) to 2 μM in 60 mM cacodylate buffer (pH 7.2). 25 μL annealed DNA was added to 96-well plate followed by 25 μL diluted compounds. The sequences of labelled oligonucleotides were as follows: F21T 21-mer (5′-FAM-GGGTTAGGGTTAGGGTTAGGG-TAMRA-3′) (SEQ ID NO:11), c-kit2 26-mer (5′-FAM-CCCGGGCGGGCGCGAGGGAGGGGAGG-TAMRA-3′) (SEQ ID NO:12), k-RAS21R 21-mer (5′-FAM-AGGGCGGTGTGGGAAGAGGGA-TAMRA-3′) (SEQ ID NO:13), c-MYC 22-mer (5′-FAM-TGAGGGTGGGTAGGGTGGGTAA-TAMRA-3′) (SEQ ID NO:14) and duplex 26-mer (5′-FAM-TATAGCTATATTTTTTTATAGCTATA-TAMRA-3′) (SEQ ID NO: 15). Measurements were made in triplicate by using a LightCycler 480 System RT-PCR machine (Roche) and average values were reported. Fluorescence readings were made with excitation at 450-495 nm and detection at 515-545 nm, taken at intervals of 1.2° C./min in the range 25° C. to 95° C.

[2] = tested on: c-MYC; assay: FRET melting assay, c-MYC; format: binding; conditions: dual-labeled DNA 0.2 μM, DMZ analogues 1 μM, potassium cacodylate 60 mM pH 7.2
Method: as §1

[3] = tested on: c-kit2; assay: FRET melting assay, c-kit2; format: binding; conditions: dual-labeled DNA 0.2 μM, DMZ analogues 1 μM, potassium cacodylate 60 mM pH 7.2
Method: as §1

[4] = tested on: k-RAS21R; assay: FRET melting assay, k-RAS21R; format: binding; conditions: dual-labeled DNA 0.2 μM, DMZ analogues 1 μM, potassium cacodylate 60 mM pH 7.2
Method: as §1

[5] = tested on: duplex; assay: FRET melting assay, duplex DNA; format: binding; conditions: dual-labeled DNA 0.2 μM, DMZ analogues 1 μM, potassium cacodylate 60 mM pH 7.2
Method: as §1

[6] = tested on: OVCAR-3; assay: WST-1 IC50 determination, OVCAR-3; format: cell-based, human; conditions: 72 hours, WST-1; for IC50: read-out: Anticancer activity IC50 ± SD, OVCAR-3
Method: (§2) Cell lines and culturing. The following human cell lines were purchased from ATCC (ATCC, Manassas, Va.): prostate cancer cells (PC-3), triple negative breast cancer cells (MDA-MB-231), ovarian cancer cells (OVCAR-3), normal bone marrow (NBM) and normal fibroblast cells (MCR5A). MDA-MB-231 cells were grown at 37° C. with 5% CO2 atmosphere with DMEM (Life technologies, Carlsbad, Calif.) supplemented with heat-inactivated 10% (V/V) fetal bovine serum. OVCAR-3 and PC-3 cells were grown at 37° C. with 5% CO2 atmosphere with RPMI (Life technologies, Carlsbad, Calif.) supplemented with heat-inactivated 10% (V/V) fetal bovine serum. Cell lines were grown and maintained according to ATCC recommendations.
(§3) IC50 determination. Cell lines were seeded into 96-well plates the afternoon prior to treatment. Cell seeding number was determined by growing cells in log phase growth during drug treatment. Approximately 18 hours later, compounds were semi-serially diluted in dimethyl sulfoxide (DMSO) and then growth medium, and added to cells. Plates were incubated for 72 hours prior to addition of WST-1 (Promega, Madison Wis.). Plates were read after 4 additional hours of incubation at 37° C. using a Bio-Tek Synergy HT plate reader (Bio-Tek, Winooski, Vt.). Data was analyzed, graphed and IC50s generated using GraphPad Prism Software (Graphpad, La Jolla, Calif.).
(§4) IC50 determination: For the determination of IC50 for the azolamide class, the same protocol as described previously was followed.

[7] = tested on: PC-3; assay: WST-1 IC50 determination, PC-3; format: cell-based, human; conditions: 72 hours, WST-1; for IC50: read-out: Anticancer activity IC50 ± SD, PC-3
Method: as §2, §3, §4

[8] = tested on: MDA-MB-231; assay: WST-1 IC50 determination, MDA-MB-231; format: cell-based, human; conditions: 72 hours, WST-1; for IC50: read-out: Anticancer activity IC50 ± SD, MDA-MB-231
Method: as §2, §3, §4

[9] = Human liver microsome stability; format: in vitro ADME
Excerpt: An established method to determine the pharmacokinetic clearance of a compound in humans is to measure the degradation of the compound in the presence of human liver microsomes. The following is the half-lives of the four compounds in human liver microsomes: […]

Row | half-life ([9]; human, liver microsomes, read-out: NADPH-dependent T½) [h] | half-life ([9]; human, liver microsomes, read-out: NADPH-independent T½) [h] | Compound | ΔTm F21T [1] [°C] | ΔTm c-MYC [2] [°C] | ΔTm c-kit2 [3] [°C] | ΔTm k-RAS21R [4] [°C] | ΔTm duplex [5] | Anticancer activity IC50 ± SD, OVCAR-3 [6] | Anticancer activity IC50 ± SD, PC-3 [7] | Anticancer activity IC50 ± SD, MDA-MB-231 [8] | IC50 [6] [µM] | IC50 [7] [µM] | IC50 [8] [µM] | NADPH-independent T½ ([9]; human liver microsomes) [h] | half-life ([9]; human liver microsomes, read-out: NADPH-dependent T½) [h]
1 |  |  | N#Cc1cccc(NN=Nc2ccc(C(=N)N)cc2)c1 [DMZ4] | 4.57 ± 0.26 | 6.94 ± 0.26 | 6.22 ± 0.26 | 2.00 ± 0.45 | NE (NE means not effective binding (ΔTm < 1° C.)) | NE (NE means not effective. Cell viability was the same or greater than 75% of the DMSO control at 20 μM compound concentration.) | NE (NE means not effective. Cell viability was the same or greater than 75% of the DMSO control at 20 μM compound concentration.) | NE (NE means not effective. Cell viability was the same or greater than 75% of the DMSO control at 20 μM compound concentration.) |  |  |  |  | 
2 |  |  | N=C(N)c1ccc(N=NNc2cccc(C#Cc3ccccn3)c2)cc1 [DMZ8] | 4.75 ± 0.00 | 9.32 ± 0.00 | 8.04 ± 0.26 | 14.62 ± 0.45 | NE (NE means not effective binding (ΔTm < 1° C.)) |  |  |  | 10.7 ± 1.5 | 10.4 ± 1.4 | 14.4 ± 0.9 |  | 
3 |  |  | Nc1cccc(C#Cc2ccc(F)cc2)c1 [compound 15, reference compound] |  |  |  |  |  | NE (NE means not effective. Cell viability was the same or greater than 75% of the DMSO control at 20 μM compound concentration.) | NE (NE means not effective. Cell viability was the same or greater than 75% of the DMSO control at 20 μM compound concentration.) | NE (NE means not effective. Cell viability was the same or greater than 75% of the DMSO control at 20 μM compound concentration.) |  |  |  |  | 
4 |  |  | N=C(N)c1ccc(N=NNc2cccc(C#Cc3ccccc3)c2)cc1 [DMZ7] | 4.20 ± 0.00 | 7.33 ± 0.26 | 6.40 ± 0.26 | 2.56 ± 0.00 | NE (NE means not effective binding (ΔTm < 1° C.)) |  |  |  | 6.5 ± 2.1 | 5.8 ± 0.2 | 9.5 ± 1.3 |  | 
5 |  |  | COc1ccc(C#Cc2cccc(NN=Nc3ccc(C(=N)N)cc3)c2)cc1 [DMZ10] | 4.39 ± 0.26 | 8.06 ± 0.26 | 5.48 ± 0.00 | 1.65 ± 0.26 | NE (NE means not effective binding (ΔTm < 1° C.)) |  |  |  | 5.2 ± 0.4 | 5 ± 0.9 | 5.5 |  | 
6 |  |  | CC(C)NC(=N)c1ccc(/N=N/c2c(N)ncc3ccc(Br)cc23)cc1 [HSY430-5] |  |  |  |  |  |  |  |  |  |  |  | >4 | > 4
7 | 2.57 | 2.38 | CCCCNC(=N)c1ccc(/N=N/c2c(N)ncc3ccc(Br)cc23)cc1 [HSY430-6] |  |  |  |  |  |  |  |  |  |  |  |  | 
8 |  |  | N=C(N)c1ccc(N)cc1 [4-aminobenzamidine, reference compound] |  |  |  |  |  | NE (NE means not effective. Cell viability was the same or greater than 75% of the DMSO control at 20 μM compound concentration.) | NE (NE means not effective. Cell viability was the same or greater than 75% of the DMSO control at 20 μM compound concentration.) | NE (NE means not effective. Cell viability was the same or greater than 75% of the DMSO control at 20 μM compound concentration.) |  |  |  |  | 
9 |  |  | N=C(N)c1ccc(N=NNc2ccccc2C#Cc2ccccc2)cc1 [DMZ12] | 4.20 ± 0.00 | 7.15 ± 0.00 | 5.12 ± 0.26 | 2.19 ± 0.26 | NE (NE means not effective binding (ΔTm < 1° C.)) |  |  |  | 8.1 ± 0.5 | 5.3 ± 0.2 | 5.1 ± 0.4 |  | 
10 |  |  | N#Cc1ccc(NN=Nc2ccc(C(=N)N)cc2)cc1 [DMZ2] | 4.20 ± 0.00 | 8.06 ± 0.68 | 5.30 ± 0.26 | 7.49 ± 0.00 | NE (NE means not effective binding (ΔTm < 1° C.)) | NE (NE means not effective. Cell viability was the same or greater than 75% of the DMSO control at 20 μM compound concentration.) | NE (NE means not effective. Cell viability was the same or greater than 75% of the DMSO control at 20 μM compound concentration.) | NE (NE means not effective. Cell viability was the same or greater than 75% of the DMSO control at 20 μM compound concentration.) |  |  |  |  | 
11 |  |  | N=C(N)c1ccc(N=NNc2cccc(-c3ccccc3)c2)cc1 [DMZ6] | 4.57 ± 0.26 | 7.49 ± 0.26 | 5.48 ± 0.45 | 4.20 ± 0.90 | NE (NE means not effective binding (ΔTm < 1° C.)) | NE (NE means not effective. Cell viability was the same or greater than 75% of the DMSO control at 20 μM compound concentration.) | NE (NE means not effective. Cell viability was the same or greater than 75% of the DMSO control at 20 μM compound concentration.) | NE (NE means not effective. Cell viability was the same or greater than 75% of the DMSO control at 20 μM compound concentration.) |  |  |  |  | 
12 |  |  | C#Cc1ccc(NN=Nc2ccc(C(=N)N)cc2)cc1 [DMZ3] | 4.57 ± 0.26 | 7.13 ± 0.45 | 5.30 ± 0.26 | 5.66 ± 0.51 | NE (NE means not effective binding (ΔTm < 1° C.)) |  |  |  | 11.8 ± 1.7 | 22.5 ± 8.8 | 30.2 ± 1.8 |  | 
13 |  |  | C#Cc1cccc(NN=Nc2ccc(C(=N)N)cc2)c1 [DMZ5] | 4.39 ± 0.26 | 7.51 ± 0.26 | 5.48 ± 0.45 | 6.39 ± 0.89 | NE (NE means not effective binding (ΔTm < 1° C.)) |  |  |  | 16.8 ± 3.1 | 18 ± 5.7 | 20.5 ± 4.2 |  | 
14 |  |  | C#Cc1ccccc1NN=Nc1ccc(C(=N)N)cc1 [DMZ11] | 4.20 ± 0.00 | 8.77 ± 0.00 | 7.68 ± 0.00 | 2.19 ± 0.26 | NE (NE means not effective binding (ΔTm < 1° C.)) |  |  |  | > 25 | > 50 | 23.2 |  | 
15 |  |  | N=C(N)c1ccc(N=NNc2ccncc2)cc1 [DMZ14] | 4.20 ± 0.00 | 6.97 ± 0.26 | 6.58 ± 0.78 | 2.19 ± 0.26 | NE (NE means not effective binding (ΔTm < 1° C.)) | NE (NE means not effective. Cell viability was the same or greater than 75% of the DMSO control at 20 μM compound concentration.) | NE (NE means not effective. Cell viability was the same or greater than 75% of the DMSO control at 20 μM compound concentration.) | NE (NE means not effective. Cell viability was the same or greater than 75% of the DMSO control at 20 μM compound concentration.) |  |  |  |  | 
